# According to ChEMBL document CHEMBL1156187, “Discovery of a selective small-molecule melanocortin-4 receptor agonist with efficacy in a pilot study of sexual dysfunction in humans” (J Med Chem, 2010):
# What was measured:
# Melanocortin receptor 4 [1] = target: T1, Melanocortin receptor 4 (Homo sapiens, UniProt P32245); assay: Agonist activity at human recombinant MC4 receptor expressed in CHO cells by cAMP responsive beta lactamase reporter gene assay; assay type: functional, cell-based
# [2] = Intrinsic clearance in human liver microsome measured per mg of protein; assay type: ADME; conditions: liver microsomes
# [3] = Lipophilicity, log D at pH 7.4; assay type: physicochemical; conditions: buffer
# Melanocortin receptor 3 [4] = target: T2, Melanocortin receptor 3 (Homo sapiens, UniProt P41968); assay: Agonist activity at human recombinant MC3 receptor expressed in CHO cells assessed as cAMP accumulation by enzyme fragment complementation assay; assay type: functional, cell-based
# T2 sequence (P41968 whole entry, the tested form may be a part): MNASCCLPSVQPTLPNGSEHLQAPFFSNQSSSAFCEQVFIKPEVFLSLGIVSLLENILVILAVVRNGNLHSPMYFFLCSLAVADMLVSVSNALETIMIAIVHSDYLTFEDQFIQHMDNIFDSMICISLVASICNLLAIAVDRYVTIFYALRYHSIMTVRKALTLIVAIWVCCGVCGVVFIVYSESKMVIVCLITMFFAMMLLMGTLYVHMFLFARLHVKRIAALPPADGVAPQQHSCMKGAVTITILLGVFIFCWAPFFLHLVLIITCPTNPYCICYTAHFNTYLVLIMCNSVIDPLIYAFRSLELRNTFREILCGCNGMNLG
# [5] = target: T3, Melanocyte-stimulating hormone receptor (Homo sapiens, UniProt Q01726); assay: Agonist activity at human recombinant MC1 receptor expressed in HEK293 cells assessed as cAMP accumulation by enzyme fragment complementation assay; assay type: functional, cell-based
# Target sequence in this assay (Q01726 whole entry, the tested form may be a part): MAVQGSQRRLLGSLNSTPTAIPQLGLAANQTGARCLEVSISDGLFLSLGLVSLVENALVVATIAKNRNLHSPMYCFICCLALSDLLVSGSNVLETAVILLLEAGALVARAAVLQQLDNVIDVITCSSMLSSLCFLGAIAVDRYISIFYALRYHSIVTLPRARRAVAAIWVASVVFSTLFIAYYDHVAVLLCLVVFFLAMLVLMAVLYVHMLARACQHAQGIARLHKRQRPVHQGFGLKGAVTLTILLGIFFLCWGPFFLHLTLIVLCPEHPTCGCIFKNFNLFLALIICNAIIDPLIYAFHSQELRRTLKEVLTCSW
# [6] = target: T3, Melanocyte-stimulating hormone receptor; assay: Agonist activity at human recombinant MC1 receptor expressed in HEK293 cells assessed as cAMP accumulation by enzyme fragment complementation assay relative to alpha melanocyte-stimulating hormone; assay type: functional, cell-based
# Target sequence in this assay (Q01726 whole entry, looked up, the tested form may be a part): as the sequence (Q01726 whole entry, the tested form may be a part) above
# Melanocortin receptor 4 [7] = target: T1, Melanocortin receptor 4; assay: Displacement of [125I]-MT-II from human recombinant MC4 receptor expressed in CHO cells by scintillation counting
# Melanocortin receptor 5 [8] = target: T4, Melanocortin receptor 5 (Homo sapiens, UniProt P33032); assay: Agonist activity at human recombinant MC5 receptor expressed in HEK293 cells assessed as cAMP accumulation by beta lactamase reporter gene assay; assay type: functional, cell-based
# T4 sequence (P33032 whole entry): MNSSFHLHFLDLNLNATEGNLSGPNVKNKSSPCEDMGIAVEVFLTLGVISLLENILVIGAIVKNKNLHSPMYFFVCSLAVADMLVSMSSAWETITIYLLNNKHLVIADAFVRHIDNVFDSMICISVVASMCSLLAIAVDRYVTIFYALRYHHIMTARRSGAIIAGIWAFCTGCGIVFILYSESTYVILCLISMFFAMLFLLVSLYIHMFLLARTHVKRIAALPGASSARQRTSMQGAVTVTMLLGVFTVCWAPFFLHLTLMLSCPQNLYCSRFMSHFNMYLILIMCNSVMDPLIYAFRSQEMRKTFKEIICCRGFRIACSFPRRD
# Melanocortin receptor 5 [9] = target: T4, Melanocortin receptor 5; assay: Agonist activity at human recombinant MC5 receptor expressed in HEK293 cells assessed as cAMP accumulation by beta lactamase reporter gene assay relative to alpha melanocyte-stimulating hormone; assay type: functional, cell-based
# Melanocortin receptor 3 [10] = target: T2, Melanocortin receptor 3; assay: Agonist activity at human recombinant MC3 receptor expressed in CHO cells assessed as cAMP accumulation by enzyme fragment complementation assay relative to […]; assay type: functional, cell-based
# T1 sequence (P32245 whole entry): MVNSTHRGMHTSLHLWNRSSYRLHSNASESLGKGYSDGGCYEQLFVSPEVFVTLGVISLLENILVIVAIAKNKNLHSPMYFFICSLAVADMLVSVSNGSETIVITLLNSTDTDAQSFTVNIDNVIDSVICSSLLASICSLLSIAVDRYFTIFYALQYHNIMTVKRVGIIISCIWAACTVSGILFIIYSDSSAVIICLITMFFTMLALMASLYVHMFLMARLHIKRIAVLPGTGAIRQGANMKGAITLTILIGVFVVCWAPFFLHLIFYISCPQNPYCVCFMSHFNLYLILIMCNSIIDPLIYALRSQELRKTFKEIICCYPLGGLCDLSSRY
Compound,EC50 (Melanocortin receptor 4 [1]) [nM],microsomal CLint [2] [µL/min/mg],logD [3],also measured
CCN1C[C@@H](C(=O)N2C[C@@H](C)[C@](O)(c3ccc(F)cc3F)[C@@H](C)C2)[C@H](c2ccc(F)cc2F)C1,51,,,
C[C@@H]1CN(C(=O)[C@@H]2CN(C(C)(C)C)C[C@H]2c2ccc(F)cc2F)C[C@H](C)[C@@]1(O)c1cccnc1,3630,,,
C[C@@H]1CN(C(=O)[C@@H]2CNC[C@H]2c2ccc(F)cc2F)C[C@H](C)[C@@]1(O)c1ccc(F)c(F)c1,288,7,,
C[C@@H]1CN(C(=O)[C@H]2CN(c3cnccn3)C[C@@H]2c2ccc(F)cc2F)C[C@H](C)[C@@]1(O)c1ccccc1,111,,,
CCN1C[C@@H](C(=O)N2C[C@@H](C)[C@](O)(c3cccc(F)c3)[C@@H](C)C2)[C@H](c2ccc(F)cc2F)C1,61,73,2.9,EC50 (Melanocortin receptor 3 [4]): > 13500 nM; EC50 [5]: > 8250 nM; EC50 (Melanocortin receptor 5 [8]): 6410 nM; Emax (Melanocortin receptor 5 [9]): 92%; Ki (Melanocortin receptor 4 [7]): 355 nM
CC(C)N1C[C@@H](C(=O)N2C[C@@H](C)[C@](O)(c3ccc(F)c(F)c3)[C@@H](C)C2)[C@H](c2ccc(F)cc2F)C1,257,28,3.3,
C[C@@H]1CN(C(=O)[C@@H]2CN(C(C)(C)C)C[C@H]2c2ccc(F)cc2F)C[C@H](C)[C@@]1(O)c1cncnc1,11100,,,
C[C@@H]1CN(C(=O)[C@@H]2CNC[C@H]2c2ccc(F)cc2F)C[C@H](C)[C@@]1(O)c1ccc(F)cc1,255,13,1.8,
CC(C)N1C[C@@H](C(=O)N2C[C@@H](C)[C@](O)(c3cccc(F)c3)[C@@H](C)C2)[C@H](c2ccc(F)cc2F)C1,40,70,3.2,
C[C@@H]1CN(C(=O)[C@@H]2CN(C(C)(C)C)C[C@H]2c2ccc(F)cc2F)C[C@H](C)[C@@]1(O)c1cccc(F)c1,6,52,3.3,EC50 (Melanocortin receptor 3 [4]): 570 nM; EC50 [5]: > 6470 nM; Emax (Melanocortin receptor 3 [10]): 81%; EC50 (Melanocortin receptor 5 [8]): 1800 nM; Emax (Melanocortin receptor 5 [9]): 74%; Ki (Melanocortin receptor 4 [7]): 97 nM
CCCN1C[C@H](C(=O)N2C[C@@H](C)[C@](O)(c3ccccc3)[C@@H](C)C2)[C@@H](c2ccc(F)cc2F)C1,19,,,

# Further lines, with some results ahead:
EC50 (Melanocortin receptor 4 [1]) [nM],microsomal CLint [2] [µL/min/mg],logD [3],Compound,also measured
644,,,C[C@@H]1CN(C(=O)[C@@H]2CN(C(C)(C)C)C[C@H]2c2ccc(F)cc2F)C[C@H](C)[C@@]1(O)c1cccc(C#N)c1,
962,14,2.2,C[C@@H]1CN(C(=O)[C@@H]2CN(C(C)(C)C)C[C@H]2c2ccc(F)cc2F)C[C@H](C)[C@@]1(O)C1CC1,
85,,,CCN1C[C@@H](C(=O)N2C[C@@H](C)[C@](O)(c3ccccc3)[C@@H](C)C2)[C@H](c2ccc(F)cc2F)C1,
126,,,CCC[C@@]1(O)[C@H](C)CN(C(=O)[C@@H]2CN(C(C)(C)C)C[C@H]2c2ccc(F)cc2F)C[C@@H]1C,EC50 (Melanocortin receptor 3 [4]): > 24700 nM; EC50 [5]: 3610 nM; Emax [6]: 95%; Ki (Melanocortin receptor 4 [7]): 844 nM
626,,,CC(C)[C@@]1(O)[C@H](C)CN(C(=O)[C@@H]2CN(C(C)(C)C)C[C@H]2c2ccc(F)cc2F)C[C@@H]1C,
15,22,3.5,C[C@@H]1CN(C(=O)[C@@H]2CN(C(C)(C)C)C[C@H]2c2ccc(F)cc2F)C[C@H](C)[C@@]1(O)c1ccc(F)c(F)c1,
4,310,3.7,C[C@@H]1CN(C(=O)[C@H]2CN(c3cccnn3)C[C@@H]2c2ccc(F)cc2F)C[C@H](C)[C@@]1(O)c1ccc(F)cc1,
81,,,C[C@@H]1CN(C(=O)[C@H]2CN(CC3CC3)C[C@@H]2c2ccc(F)cc2F)C[C@H](C)[C@@]1(O)c1ccccc1,
243,,,C[C@@H]1CN(C(=O)[C@H]2CN(c3ncccn3)C[C@@H]2c2ccc(F)cc2F)C[C@H](C)[C@@]1(O)c1ccccc1,EC50 (Melanocortin receptor 3 [4]): > 26700 nM; EC50 [5]: > 10000 nM; EC50 (Melanocortin receptor 5 [8]): > 11100 nM; Ki (Melanocortin receptor 4 [7]): 300 nM
73,,,CC(C)CN1C[C@H](C(=O)N2C[C@@H](C)[C@](O)(c3ccccc3)[C@@H](C)C2)[C@@H](c2ccc(F)cc2F)C1,
105,,,CCCCN1C[C@H](C(=O)N2C[C@@H](C)[C@](O)(c3ccccc3)[C@@H](C)C2)[C@@H](c2ccc(F)cc2F)C1,EC50 (Melanocortin receptor 3 [4]): > 5720 nM; EC50 [5]: 1100 nM; Emax [6]: 72%; EC50 (Melanocortin receptor 5 [8]): 1430 nM; Emax (Melanocortin receptor 5 [9]): 72%; Ki (Melanocortin receptor 4 [7]): 233 nM
91,34,3.5,CC(C)N1C[C@@H](C(=O)N2C[C@@H](C)[C@](O)(c3ccc(Cl)cc3)[C@@H](C)C2)[C@H](c2ccc(F)cc2F)C1,
1170,,,CC(C)(C)N1C[C@@H](C(=O)N2CCC(O)(c3ccccc3)CC2)[C@H](c2ccc(F)cc2F)C1,
